Experiments:
Assay type in all cases: in vivo
Details in all cases: evaluated after 13 days
[1] = tested on: Echinochloa crus-galli (ECHCG); test: B2 post-emergence herbicidal activity
Description: (§1) Seeds of a variety of test species were sown in standard soil in pots: Triticum aestivium (TRZAW), Oryza sativa (ORYSA), Avena fatua (AVEFA), Alopecurus myosuroides (ALOMY), Echinochloa crus-galli (ECHCG), Lolium perenne (LOLPE). After 8 days cultivation (post-emergence) under controlled conditions in a glasshouse (at 24/16° C., day/night; 14 hours light; 65% humidity), the plants were sprayed with an aqueous spray solution derived from the formulation of the technical active ingredient in acetone/water (50:50) solution containing 0.5% Tween 20 (polyoxyethelyene sorbitan monolaurate, CAS RN 9005-64-5). The test plants were then grown in a glasshouse under controlled conditions (at 24/16° C., day/night; 14 hours light; 65% humidity) and watered twice daily. After 13 days, the test was evaluated (5=total damage to plant; 0=no damage to plant).

Lolium perenne (LOLPE) [2] = test: B2 post-emergence herbicidal activity
Description: as §1

[3] = tested on: Alopecurus myosuroides (ALOMY); test: B2 post-emergence herbicidal activity
Description: as §1

Avena fatua (AVEFA) [4] = test: B2 post-emergence herbicidal activity
Description: as §1

Oryza sativa (ORYSA) [5] = test: B2 post-emergence herbicidal activity
Description: as §1

[6] = tested on: Triticum aestivium (TRZAW); test: B2 post-emergence herbicidal activity
Description: as §1

[7] = tested on: Echinochloa crus-galli (ECHCG); test: B1 pre-emergence herbicidal activity
Description: as §1, with “After” for “After 8 days”, “for one day (pre-emergence)” for “(post-emergence)”

Lolium perenne (LOLPE) [8] = test: B1 pre-emergence herbicidal activity
Description: as §1, with “After” for “After 8 days”, “for one day (pre-emergence)” for “(post-emergence)”

[9] = tested on: Alopecurus myosuroides (ALOMY); test: B1 pre-emergence herbicidal activity
Description: as §1, with “After” for “After 8 days”, “for one day (pre-emergence)” for “(post-emergence)”

Avena fatua (AVEFA) [10] = test: B1 pre-emergence herbicidal activity
Description: as §1, with “After” for “After 8 days”, “for one day (pre-emergence)” for “(post-emergence)”

Oryza sativa (ORYSA) [11] = test: B1 pre-emergence herbicidal activity
Description: as §1, with “After” for “After 8 days”, “for one day (pre-emergence)” for “(post-emergence)”

[12] = tested on: Triticum aestivium (TRZAW); test: B1 pre-emergence herbicidal activity
Description: as §1, with “After” for “After 8 days”, “for one day (pre-emergence)” for “(post-emergence)”

| Structure (SMILES) | Control of ECHCG after post-emergence application (damage score 0-5) ([1]; Rate 1000 g/ha) | Control of LOLPE after post-emergence application (damage score 0-5) (Lolium perenne (LOLPE) [2]; Rate 1000 g/ha) | Control of ALOMY after post-emergence application (damage score 0-5) ([3]; Rate 1000 g/ha) | Control of AVEFA after post-emergence application (damage score 0-5) (Avena fatua (AVEFA) [4]; Rate 1000 g/ha) | Control of ORYSA after post-emergence application (damage score 0-5) (Oryza sativa (ORYSA) [5]; Rate 1000 g/ha) | Control of TRZAW after post-emergence application (damage score 0-5) ([6]; Rate 1000 g/ha) | Control of ECHCG after pre-emergence application (damage score 0-5) ([7]; Rate 1000 g/ha) | Control of LOLPE after pre-emergence application (damage score 0-5) (Lolium perenne (LOLPE) [8]; Rate 1000 g/ha) | Control of ALOMY after pre-emergence application (damage score 0-5) ([9]; Rate 1000 g/ha) | Control of AVEFA after pre-emergence application (damage score 0-5) (Avena fatua (AVEFA) [10]; Rate 1000 g/ha) | Control of ORYSA after pre-emergence application (damage score 0-5) (Oryza sativa (ORYSA) [11]; Rate 1000 g/ha) | Control of TRZAW after pre-emergence application (damage score 0-5) ([12]; Rate 1000 g/ha) | also measured |
| --- | --- | --- | --- | --- | --- | --- | --- | --- | --- | --- | --- | --- | --- |
| CN(C(=O)OC(C)(C)C)c1cc(-c2cccnc2)nn1C [Compound A1, tert-butyl N-methyl-N-[2-methyl-5-(3-pyridyl)pyrazol-3-yl]carbamate] | 5 | 1 | 3 | 1 | 4 | 1 | 3 | 1 | 0 | 1 | 1 | 0 | – |
| Cc1nn(-c2cncnc2)cc1NC(=O)OC(C)(C)C [Compound A3, tert-butyl N-(3-methyl-1-pyrimidin-5-yl-pyrazol-4-yl)carbamate] | – | – | – | – | – | – | – | – | – | – | – | – | Control of ECHCG after post-emergence application (damage score 0-5) ([1]; Rate 500 g/ha): 5; Control of LOLPE after post-emergence application (damage score 0-5) (Lolium perenne (LOLPE) [2]; Rate 500 g/ha): 2; Control of ALOMY after post-emergence application (damage score 0-5) ([3]; Rate 500 g/ha): 2; Control of AVEFA after post-emergence application (damage score 0-5) (Avena fatua (AVEFA) [4]; Rate 500 g/ha): 4; Control of ORYSA after post-emergence application (damage score 0-5) (Oryza sativa (ORYSA) [5]; Rate 500 g/ha): 1; Control of TRZAW after post-emergence application (damage score 0-5) ([6]; Rate 500 g/ha): 1; Control of ECHCG after pre-emergence application (damage score 0-5) ([7]; Rate 500 g/ha): 4; Control of LOLPE after pre-emergence application (damage score 0-5) (Lolium perenne (LOLPE) [8]; Rate 500 g/ha): 0; Control of ALOMY after pre-emergence application (damage score 0-5) ([9]; Rate 500 g/ha): 0; Control of AVEFA after pre-emergence application (damage score 0-5) (Avena fatua (AVEFA) [10]; Rate 500 g/ha): 0; Control of ORYSA after pre-emergence application (damage score 0-5) (Oryza sativa (ORYSA) [11]; Rate 500 g/ha): 1; Control of TRZAW after pre-emergence application (damage score 0-5) ([12]; Rate 500 g/ha): 1 |
| CC(C)(C)OC(=O)Nc1cn(-c2cncnc2)nc1C(F)(F)F [Compound A4] | 5 | 1 | 1 | 1 | 2 | 1 | 4 | 0 | 0 | 1 | 1 | 0 | – |
| Cc1nn(-c2cncnc2)cc1N(C)C(=O)OC(C)(C)C [Compound A5, tert-butyl N-methyl-N-(3-methyl-1-pyrimidin-5-yl-pyrazol-4-yl)carbamate] | 5 | 2 | 4 | 0 | 5 | 2 | 5 | 1 | 1 | 4 | 2 | 4 | – |
| CN(C(=O)OC(C)(C)C)c1cn(-c2cncnc2)nc1C(F)(F)F [Compound A6] | 5 | 1 | 3 | 1 | 5 | 1 | 5 | 1 | 0 | 3 | 2 | 0 | – |
